# Reference: publication PMC5640156 (Journal of the American Chemical Society, 2017)
# How the values were obtained:
# [1] = molecular target: T1, P450cam (Pseudomonas putida, UniProt P00183, R187A); assay: isothermal titration calorimetry; assay type: binding
# T1 sequence (P00183 2-415 R187A): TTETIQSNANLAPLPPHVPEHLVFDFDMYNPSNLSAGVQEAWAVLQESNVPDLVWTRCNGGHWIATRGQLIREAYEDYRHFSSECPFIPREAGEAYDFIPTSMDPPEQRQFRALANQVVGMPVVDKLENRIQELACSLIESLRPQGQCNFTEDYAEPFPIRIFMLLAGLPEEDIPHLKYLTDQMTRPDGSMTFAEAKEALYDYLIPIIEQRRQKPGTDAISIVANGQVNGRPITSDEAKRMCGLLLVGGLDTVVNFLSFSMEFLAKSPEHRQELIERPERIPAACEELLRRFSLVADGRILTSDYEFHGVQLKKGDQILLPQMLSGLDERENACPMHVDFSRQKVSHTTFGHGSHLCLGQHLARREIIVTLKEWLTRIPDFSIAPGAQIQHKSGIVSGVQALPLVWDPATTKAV
# [2] = molecular target: T2, R186A mutant of cytochrome P450cam (Pseudomonas putida, UniProt P00183 2-415, R186A); assay: ITC
# T2 sequence: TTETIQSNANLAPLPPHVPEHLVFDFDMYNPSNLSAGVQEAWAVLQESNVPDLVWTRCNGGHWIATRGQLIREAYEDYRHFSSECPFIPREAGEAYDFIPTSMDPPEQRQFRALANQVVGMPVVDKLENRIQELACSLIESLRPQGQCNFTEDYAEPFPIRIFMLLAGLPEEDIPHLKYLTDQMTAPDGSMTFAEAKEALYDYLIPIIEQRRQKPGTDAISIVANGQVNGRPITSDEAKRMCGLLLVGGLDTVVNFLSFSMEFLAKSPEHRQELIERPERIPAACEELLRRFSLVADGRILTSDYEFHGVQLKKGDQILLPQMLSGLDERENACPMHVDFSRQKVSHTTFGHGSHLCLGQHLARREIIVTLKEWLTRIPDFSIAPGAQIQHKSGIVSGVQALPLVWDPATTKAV
Kd [2] [µM],Molecule,Kd [1] [µM]
–,CC1(C)[C@@H]2CC[C@@]1(C)C(=O)C2 [D-camphor],32.2 ± 4
22.1,"putidaredoxin (natural protein, Pseudomonas putida) MSKVVYVSHDGTRRELDVADGVSLMQAAVSNGIYDIVGDCGGSASCATCHVYVNEAFTDKVPAANEREIGMLECVTAELKPNSRLCCQIIMTPELDGIVVDVPDRQW",–
